Assays:
RAR α [1] = target: T1, RAR α (Homo sapiens, UniProt P10276); assay: RAR α Kd; format: binding; settings: last item of cell EC50/(EFFICACY)/Kd
T1 sequence (P10276 1-462): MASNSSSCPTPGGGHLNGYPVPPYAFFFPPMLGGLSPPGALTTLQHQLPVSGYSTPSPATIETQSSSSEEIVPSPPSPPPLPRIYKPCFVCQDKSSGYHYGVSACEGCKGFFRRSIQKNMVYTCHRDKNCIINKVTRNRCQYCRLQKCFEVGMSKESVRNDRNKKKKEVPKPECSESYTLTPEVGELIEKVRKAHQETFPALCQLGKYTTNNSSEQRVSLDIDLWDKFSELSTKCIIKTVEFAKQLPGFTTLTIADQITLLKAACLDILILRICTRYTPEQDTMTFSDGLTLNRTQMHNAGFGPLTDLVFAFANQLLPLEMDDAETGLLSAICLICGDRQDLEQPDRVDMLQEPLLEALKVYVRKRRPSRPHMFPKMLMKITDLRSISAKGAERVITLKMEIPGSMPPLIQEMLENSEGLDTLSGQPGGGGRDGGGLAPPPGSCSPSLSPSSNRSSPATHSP

RAR α [2] = target: T1, RAR α; assay: RAR α EC50/(efficacy); format: cell-based; settings: for RAR α (EFFICACY): value in brackets of cell EC50/(EFFICACY)/Kd
RAR β [3] = target: T2, RAR β (Homo sapiens, UniProt P10826); assay: RAR β EC50/(efficacy); format: cell-based; settings: for RAR β (EFFICACY): value in brackets of cell EC50/(EFFICACY)/Kd; for EC50: first item of cell EC50/(EFFICACY)/Kd
T2 sequence (P10826 1-455): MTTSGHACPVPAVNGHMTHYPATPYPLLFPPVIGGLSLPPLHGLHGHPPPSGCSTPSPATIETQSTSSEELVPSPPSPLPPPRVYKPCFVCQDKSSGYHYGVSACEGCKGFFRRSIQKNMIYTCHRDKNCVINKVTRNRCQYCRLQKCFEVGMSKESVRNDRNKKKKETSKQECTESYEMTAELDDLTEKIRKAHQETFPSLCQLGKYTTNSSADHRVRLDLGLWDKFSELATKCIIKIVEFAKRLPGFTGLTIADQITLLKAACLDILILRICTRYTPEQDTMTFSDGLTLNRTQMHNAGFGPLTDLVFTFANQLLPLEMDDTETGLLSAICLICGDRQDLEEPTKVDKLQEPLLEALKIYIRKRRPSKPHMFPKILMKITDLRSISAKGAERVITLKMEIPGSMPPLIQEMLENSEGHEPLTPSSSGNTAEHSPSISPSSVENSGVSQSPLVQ

RAR γ [4] = target: T3, RAR γ (Homo sapiens, UniProt P13631); assay: RAR γ EC50/(efficacy); format: cell-based; settings: for RAR γ (EFFICACY): value in brackets of cell EC50/(EFFICACY)/Kd; for EC50: first item of cell EC50/(EFFICACY)/Kd
T3 sequence (P13631 1-454): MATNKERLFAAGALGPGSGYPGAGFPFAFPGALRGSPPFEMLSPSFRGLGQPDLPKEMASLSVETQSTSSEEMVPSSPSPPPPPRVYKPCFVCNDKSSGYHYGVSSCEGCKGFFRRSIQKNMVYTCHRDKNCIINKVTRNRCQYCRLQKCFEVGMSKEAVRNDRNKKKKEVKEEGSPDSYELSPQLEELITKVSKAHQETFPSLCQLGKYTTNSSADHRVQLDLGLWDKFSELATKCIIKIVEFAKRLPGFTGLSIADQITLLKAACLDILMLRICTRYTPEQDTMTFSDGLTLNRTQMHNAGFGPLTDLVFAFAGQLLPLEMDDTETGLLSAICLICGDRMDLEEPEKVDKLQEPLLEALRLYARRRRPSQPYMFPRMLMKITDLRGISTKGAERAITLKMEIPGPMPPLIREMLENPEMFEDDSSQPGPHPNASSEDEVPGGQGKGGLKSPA

RAR γ [5] = target: T3, RAR γ; assay: RAR γ Kd; format: binding; settings: last item of cell EC50/(EFFICACY)/Kd
CYP26A (P450RAI-1) = target: T4, CYP26A (P450RAI-1) (Homo sapiens, UniProt O43174); assay: Cell-based inhibition of RA metabolism in CYP26A stably transfected HeLa cells; settings: stably transfected HeLa cells, [3H]-RA, 3 hours at 37° C.; read-out: P450RAI-1 Whole cell IC50
T4 construct: expressed in transfected cells; host or cells: HeLa
T4 sequence (O43174 1-497): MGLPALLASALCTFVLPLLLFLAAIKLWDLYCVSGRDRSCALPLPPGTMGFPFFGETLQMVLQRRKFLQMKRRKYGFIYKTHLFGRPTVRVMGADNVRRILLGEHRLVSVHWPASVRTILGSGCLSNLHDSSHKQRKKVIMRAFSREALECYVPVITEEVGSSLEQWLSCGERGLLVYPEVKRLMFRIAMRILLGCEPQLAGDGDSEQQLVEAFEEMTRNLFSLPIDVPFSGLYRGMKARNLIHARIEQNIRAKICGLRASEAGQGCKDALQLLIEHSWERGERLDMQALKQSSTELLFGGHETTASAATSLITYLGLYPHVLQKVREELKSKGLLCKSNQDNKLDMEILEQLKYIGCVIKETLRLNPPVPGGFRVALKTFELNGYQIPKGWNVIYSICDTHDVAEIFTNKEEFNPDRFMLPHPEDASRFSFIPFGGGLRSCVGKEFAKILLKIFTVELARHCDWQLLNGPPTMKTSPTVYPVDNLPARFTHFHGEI
Outline: (§1)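 Stably transfected HeLa cells (5×10^5/well) in MEM with 10% FBS and 0.05 μCi [3H]-RA, compounds at 10, 1 or 0.1 μM final, 3 h at 37° C. Retinoids extracted by modified Bligh-Dyer (methylene chloride); aqueous radioactivity counted; ID50 for 50% inhibition of RA metabolism derived from log-transformed data.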

RAR β [6] = target: T2, RAR β; assay: RAR β Kd; format: binding; settings: last item of cell EC50/(EFFICACY)/Kd
CYP26B (P450RAI-2) = target: T5, CYP26B (P450RAI-2) (Homo sapiens, UniProt Q9NR63); assay: Cell-based inhibition of RA metabolism in CYP26B stably transfected HeLa cells; settings: stably transfected HeLa cells, [3H]-RA, 3 hours at 37° C.; read-out: P450RAI-2 Whole cell IC50
T5 construct: expressed in transfected cells; host or cells: HeLa
T5 sequence (Q9NR63 1-512): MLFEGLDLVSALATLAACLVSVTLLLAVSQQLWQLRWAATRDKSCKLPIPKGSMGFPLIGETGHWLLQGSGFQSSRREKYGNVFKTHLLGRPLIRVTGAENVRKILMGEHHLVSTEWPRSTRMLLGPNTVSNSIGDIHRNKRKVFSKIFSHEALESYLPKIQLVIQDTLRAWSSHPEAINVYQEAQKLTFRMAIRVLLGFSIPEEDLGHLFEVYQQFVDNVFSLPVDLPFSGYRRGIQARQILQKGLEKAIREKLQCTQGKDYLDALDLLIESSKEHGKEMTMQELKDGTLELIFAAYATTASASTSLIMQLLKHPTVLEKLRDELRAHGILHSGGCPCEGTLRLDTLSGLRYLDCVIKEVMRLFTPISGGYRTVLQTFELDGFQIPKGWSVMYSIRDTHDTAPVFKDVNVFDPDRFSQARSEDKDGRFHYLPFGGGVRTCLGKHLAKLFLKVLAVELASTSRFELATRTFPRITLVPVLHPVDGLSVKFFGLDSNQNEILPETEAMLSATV
Outline: as §1

SMILES	Kd (RAR α [1])	RAR α (EFFICACY) (RAR α [2])	RAR β (EFFICACY) (RAR β [3])	RAR γ (EFFICACY) (RAR γ [4])	Kd (RAR γ [5])	IC50 (CYP26A (P450RAI-1))	Kd (RAR β [6])	IC50 (CYP26B (P450RAI-2))	EC50 (RAR β [3])	EC50 (RAR γ [4])	EC50 (RAR α [2]; first item of cell EC50/(EFFICACY)/Kd)
CCC1(CC)CC(C)(C)c2cc(C#Cc3ccc(C(C)(C)C(=O)O)cc3)cc(C(C)C)c2O1 [Compound 14, 2-[4-(2,2-Diethyl-8-isopropyl-4,4-dimethyl-chroman-6-ylethynyl)-phenyl]-2-methyl-propionic acid]	5170 nM		10	25	> 10000 nM	700 nM	7400 nM	> 10000 nM			
C=Cc1c(C)c(C#Cc2ccc(CC(=O)O)cc2)cc(C(C)(C)C)c1OC(C)C [Compound 46, [4-(5-tert-Butyl-4-isopropoxy-2-methyl-3-vinyl-phenylethynyl)-phenyl]-acetic acid]	85 nM	67	75	65	215 nM	700 nM	45 nM	> 10000 nM	10 nM	7 nM	65 nM
C=Cc1cc(C#Cc2ccc(CC(=O)O)cc2)cc2c1C(N(C)C1CC1)CCC2(C)C (centres unmarked) [Compound 23, {4-[5-(Cyclopropyl-methyl-amino)-8,8-dimethyl-4-vinyl-5,6,7,8-tetrahydro-naphthalen-2-ylethynyl]-phenyl}-acetic acid]	> 10000 nM		40	35	> 10000 nM	8 nM	> 10000 nM	500 nM			
CC(C)c1cc(C(=O)Oc2ccc(/C=C/C(=O)O)cc2)cc2c1OC(C)(C)CC2(C)C [Compound 16, 8-Isopropyl-2,2,4,4-tetramethyl-chroman-6-carboxylic acid 4-(2-carboxy-vinyl)-phenyl ester]	3080 nM	~5	35	~5	> 10000 nM	300 nM	810 nM	> 10000 nM			
CCOC(=O)C1=CCC(C)(C)c2cc(C#Cc3ccc(CC(=O)O)cc3)c(C)cc21 [Compound 55, 6-(4-Carboxymethyl-phenylethynyl)-4,4,7-trimethyl-3,4-dihydro-naphthalene-1-carboxylic acid ethyl ester]	> 10000 nM		35	30	> 10000 nM	1400 nM	> 10000 nM	> 10000 nM			
C#CCc1c(C)c(C#Cc2ccc(CC(=O)O)cc2)cc(C(C)(C)C)c1OC(C)C [Compound 47, [4-(5-tert-Butyl-4-isopropoxy-2-methyl-3-prop-2-ynyl-phenylethynyl)-phenyl]-acetic acid]	2240 nM	10	59	66	1950 nM	100 nM	4470 nM	8800 nM	38 nM	125 nM	
C/C(=C\c1ccc(C#Cc2cc(C3CC3)c3c(c2)C(C)(C)CC2(CC2)O3)cc1)C(=O)O [Compound 3]	> 10000 nM		15	10	6040 nM	250 nM	520 nM	> 10000 nM			
CC(C)OC(=O)c1ccc(C#Cc2ccc(CC(=O)O)cc2)cc1CN(C)C1CC1 [Compound 38, 4-(4-Carboxymethyl-phenylethynyl)-2-[(cyclopropyl-methyl-amino)-methyl]-benzoic acid isopropyl ester]	> 10000 nM	10			> 10000 nM	4000 nM	> 10000 nM	> 10000 nM			

Now from value to compound:

Kd (RAR α [1])	RAR α (EFFICACY) (RAR α [2])	RAR β (EFFICACY) (RAR β [3])	RAR γ (EFFICACY) (RAR γ [4])	Kd (RAR γ [5])	IC50 (CYP26A (P450RAI-1))	Kd (RAR β [6])	IC50 (CYP26B (P450RAI-2))	EC50 (RAR β [3])	EC50 (RAR γ [4])	EC50 (RAR α [2]; first item of cell EC50/(EFFICACY)/Kd)	SMILES
> 10000 nM	10	70	15	> 10000 nM	> 10000 nM	7020 nM	500 nM				CN(c1cccc(C#Cc2ccc(/C=C/C(=O)O)cc2)c1)C1CC1 [Compound 37, (E)-3-{4-[3-(Cyclopropyl-methyl-amino)-phenylethynyl]-phenyl}-acrylic acid]
1930 nM		80	48	2890 nM	> 10000 nM	2090 nM	500 nM	16 nM	126 nM		CC(C)(C)c1cccc(C#Cc2ccc(/C=C/C(=O)O)cc2)c1 [Compound 35, (E)-3-[4-(3-tert-Butyl-phenylethynyl)-phenyl]-acrylic acid]
6320 nM		60	15	8990 nM	60 nM	3960 nM	2600 nM				CCOC(=O)C1=CCC(C)(C)c2cc(C#Cc3ccc(CC(=O)O)c(F)c3)ccc21 [Compound 60, 6-(4-Carboxymethyl-3-fluoro-phenylethynyl)-4,4-dimethyl-3,4-dihydro-naphthalene-1-carboxylic acid ethyl ester]
> 10000 nM		55	15	> 10000 nM	> 10000 nM	4540 nM	450 nM	320 nM			CC1(C)CC2(CC2)Oc2c(C3CC3)cc(NC(=O)Nc3ccc(C(=O)O)cc3)cc21 [Compound 5, 4-{3-[8-Cyclopropyl-3,3-dihydro-4,4-dimethylspiro(2H-1-benzopyran-2,2′-cyclopropane)-6-yl]-ureido}-benzoic acid]

From patent US7468391B2, “Methods for treating retinoid responsive disorders using selective inhibitors of CYP26A and CYP26B” (Allergan, Inc., priority 2003, dated 2008)
